# pKi: −log10 of the molar value.
# Tests used:
# [1] = biological target: rat 5-HT2A receptor (Rattus norvegicus, UniProt P14842); assay: 5-HT2A binding study, rat receptor; conditions: read-out: 5HT-2a Ki, Rat
# [2] = biological target: human 5-HT2A receptor (Homo sapiens, UniProt P28223); assay: 5-HT2A binding study, human receptor; conditions: read-out: 5HT-2a Ki, Human
# [3] = system: Male Wistar rats; assay: SCORE-2000 sleep-wake assay (EEG/EMG, locomotor activity, body temperature)
# [4] = 3 mg/kg and 10 mg/kg IP at CT-5
# Sequence of rat 5-HT2A receptor (P14842 whole entry): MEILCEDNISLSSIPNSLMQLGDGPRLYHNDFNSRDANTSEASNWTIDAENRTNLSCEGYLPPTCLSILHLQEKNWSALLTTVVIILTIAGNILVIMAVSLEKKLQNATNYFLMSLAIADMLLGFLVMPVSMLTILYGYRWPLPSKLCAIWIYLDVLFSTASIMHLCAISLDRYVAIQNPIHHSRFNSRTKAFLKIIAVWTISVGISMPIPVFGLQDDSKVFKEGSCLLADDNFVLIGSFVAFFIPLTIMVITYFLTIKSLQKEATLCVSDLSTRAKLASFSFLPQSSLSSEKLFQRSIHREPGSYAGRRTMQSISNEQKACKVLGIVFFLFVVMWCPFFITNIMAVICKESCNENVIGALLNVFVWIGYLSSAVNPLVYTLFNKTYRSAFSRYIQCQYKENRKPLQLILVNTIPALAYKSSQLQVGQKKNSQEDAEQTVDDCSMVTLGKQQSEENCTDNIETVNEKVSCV
# Sequence of human 5-HT2A receptor (P28223 whole entry): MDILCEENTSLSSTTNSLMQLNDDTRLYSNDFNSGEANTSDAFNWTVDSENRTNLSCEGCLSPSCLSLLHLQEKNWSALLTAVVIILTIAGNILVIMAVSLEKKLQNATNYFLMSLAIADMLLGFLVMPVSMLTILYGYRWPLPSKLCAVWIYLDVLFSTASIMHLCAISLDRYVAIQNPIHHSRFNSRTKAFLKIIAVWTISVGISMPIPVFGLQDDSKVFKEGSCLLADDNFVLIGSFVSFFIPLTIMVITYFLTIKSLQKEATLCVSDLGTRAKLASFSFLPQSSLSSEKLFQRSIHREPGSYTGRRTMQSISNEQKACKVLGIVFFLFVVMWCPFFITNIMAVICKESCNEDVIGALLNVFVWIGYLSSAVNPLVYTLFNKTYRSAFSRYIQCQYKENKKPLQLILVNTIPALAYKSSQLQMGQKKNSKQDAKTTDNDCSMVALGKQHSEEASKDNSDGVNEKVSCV
Compound,pKi [1],pKi [2],activity on sleep-wakefulness in all measured variables ([3]; 30 mg/kg),increasing sleep and sleep consolidation ([3]; 30 mg/kg),"duration of interference with sleep post-treatment [3, 4] [h]","duration of reduction in nonREM sleep time post-treatment [3, 4] [h]","rebound hypersomnolence after sleep interference [3, 4]"
Cl.O=C(O)C1CN(CCCn2nc3ccccn3c2=O)CCN1c1cccc(Cl)c1 (stereo not shown) [HY-2724],6.00,< 5.00,inactive,ineffective,,,
"Clc1cccc(N2CCNCC2)c1 [m-CPP, meta-chlorophenylpiperazine]",,,,,2 to 3,2 to 3,followed by a rebound hypersomnolence

# Source: patent US20030232839A1, “Treatment of sleeping disorders using CNS sleep target modulators” (Hypnion, Inc., priority 2002, published 2003)
